The values below come from patent publication US20260327243A1, “SPIRO-HETEROCYCLIC INHIBITORS OF KRAS G12C MUTANT PROTEINS AND USES THEREOF” (AMGEN INC., priority 2023, published 2026).

Like-named read-outs stand apart in the source and are kept apart here.

One assay deals with KRAS p.G12C tumors. The following applies: mice bearing KRAS p.G12C tumors; Hong et al. 2020; cited from earlier work.
For assay [1], the system named is advanced or metastatic cancer with the KRAS G12C mutation. The conditions noted are these: cited from earlier work; for disease control rate: Hong et al. 2020.
The subject of assay [2] is extracellular signal-regulated kinase (ERK). The following applies: preclinical studies; Hong et al. 2020; cited from earlier work.
In another assay the target is KRAS^G12C (Homo sapiens, UniProt P01116, C118A/G12C). Nature of the assay: Coupled Nucleotide Exchange Assay. It counts as biochemical. The conditions noted are these: GDP-bound KRAS (aa 1-169) G12C/C118A; 2 h compound pre-incubation; SOS-mediated exchange, 30 min; cRAF binding (AlphaLISA). The gist of the method: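 GDP-bound His-tagged KRAS aa 1-169 (G12C/C118A) pre-incubated 2 h with compound in 25 mM HEPES pH 7.4, 10 mM MgCl2, 0.01% Triton X-100 (±0.1% BSA), then SOS (aa 564-1049) plus GTP added for 30 min. GST-cRAF RBD binding read by AlphaLISA; DMSO-normalized, 4-parameter fit gives IC50.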
Chain of KRAS^G12C (P01116 1-169 isoform P01116-2 G12C/C118A): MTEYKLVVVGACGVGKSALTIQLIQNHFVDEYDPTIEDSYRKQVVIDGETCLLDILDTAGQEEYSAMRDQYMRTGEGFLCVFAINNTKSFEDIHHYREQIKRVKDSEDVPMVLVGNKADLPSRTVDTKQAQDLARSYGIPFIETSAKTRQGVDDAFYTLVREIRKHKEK
A general note: In Alpha technology, singlet oxygen from a donor bead excites a nearby acceptor bead.

In the next assay the test system is A549 cells. Kind of assay: Cell Viability Assay, A549. The conditions noted are these: A549; human lung carcinoma; 72 h; CellTiter-Glo. It counts as cell-based. A general note: In ATP-based viability assays light output follows the ATP content of the culture.
In the next assay the test system is MIA PaCa-2 cells. Nature of the assay: Cell Viability Assay, MIA PaCa-2. The assay is classed as cell-based. The conditions noted are these: Homo sapiens, MIA PaCa-2, 72 h, human pancreatic carcinoma, CellTiter-Glo.

Take `C=CC(=O)N1CCN(c2nc(=O)n(-c3c(C)ccnc3C(C)C)c3nc(-c4c(O)cccc4F)c(F)cc23)[C@@H](C)C1` [Sotorasib, sotorasib]: the tumor regression result in the assay with KRAS p.G12C tumors is given as “durable complete tumor regression”. In addition, in assay [1] (NSCLC, colorectal, pancreatic, appendiceal, endometrial, esophageal, unknown primary, ampullary, gastric, small bowel, sinonasal, bile duct cancer, melanoma), the “response by cancer type” value was “either stable disease (SD) or partial response (PR)”. Also, the disease control rate is listed as 73.8% in assay [1] (colorectal cancer, 42 subjects); 88.1% in assay [1] (non-small cell lung cancer, 59 subjects); 75.0% in assay [1] (other tumor types, 28 subjects). The “inhibition of phosphorylation of ERK” value in assay [2] was “inhibited nearly all detectable phosphorylation of extracellular signal-regulated kinase (ERK)”.

For the compound `C=CC(=O)N1CCN([C@@H]2CN(c3cc(N4CCC5(CC4)OC[C@@H](COC)n4ncc(C)c45)nc(C(F)(F)F)n3)[C@@H]2C)CC1` [Compound 3-097, 1-(4-((2R,3R)-1-(6-((7′R)-7′-(methoxymethyl)-3′-methyl-6′,7′-dihydro-1H-spiro[piperidine-4,4′-pyrazolo[5,1-c][1.4]oxazin]-1-yl)-2-(trifluoromethyl)-4-pyrimidinyl)-2-methyl-3-azetidinyl)-1-piperazinyl)-2-propen-1-one], the values for the concentration for half-maximal inhibition (IC50) at KRAS^G12C, in the assay with A549 cells and with MIA PaCa-2 cells were 85 nM, > 5000 nM and 226 nM, respectively.

On to `C=CC(=O)N1CCN([C@@H]2CN(c3cc(N4CCC5(C[C@H]4C)OCC=C5C)nc(C(F)F)n3)[C@@H]2C)CC1` (stereo partly drawn) [Compound 3-003, 1-(4-((2R,3R)-1-(2-(Difluoromethyl)-6-((7R)-4,7-dimethyl-1-oxa-8-azaspiro[4.5]dec-3-en-8-yl)pyrimidin-4-yl)-2-methylazetidin-3-yl)piperazin-1-yl) prop-2-en-1-one], for which the IC50 (as a rule, the midpoint of a concentration-inhibition curve) at KRAS^G12C was 512 nM; in the assay on A549 cells, > 5000 nM; with MIA PaCa-2 cells it was 832 nM.

In the case of `C=CC(=O)N1CCN([C@@H]2CN(c3cc(N4CC[C@]5(C[C@H]4C)OC[C@H](CO)n4ncc(C)c45)nc(C(F)(F)F)n3)[C@@H]2C)CC1` (single isomer, unassigned) [Compound 3-087-2], the results for the IC50 at KRAS^G12C, in the assay with A549 cells and in the assay with MIA PaCa-2 cells were 87 nM, > 5000 nM and 142 nM, respectively.

For `C=CC(=O)N1CCN([C@@H]2CN(c3cc(N4CC[C@]5(C[C@H]4C)OC[C@@H](CO)n4ncc(C)c45)nc(C(F)F)n3)[C@@H]2C)CC1` (single isomer, unassigned) [Compound 3-088-1], the IC50 at KRAS^G12C was 106 nM; in the assay on A549 cells it was > 5000 nM; in the assay on MIA PaCa-2 cells it was 189 nM.

Turning to `C=CC(=O)N1CCN([C@@H]2CN(c3cc(N4CC[C@]5(C[C@H]4C)OC[C@@H](COC)n4ncc(C)c45)nc(C(F)F)n3)[C@@H]2C)CC1` (single isomer, unassigned) [Compound 3-090-1], the IC50 at KRAS^G12C is 145 nM; with A549 cells it was > 5000 nM; with MIA PaCa-2 cells, 193 nM.

For the compound `C=CC(=O)N1CCN(C2CN(c3cc(N4CCC5(C=CCO5)CC4)nc(C(F)(F)F)c3C#N)C2)CC1` [Compound 3-059, 4-(3-(4-Acryloylpiperazin-1-yl)azetidin-1-yl)-6-(1-oxa-8-azaspiro[4.5]dec-3-en-8-yl)-2-(trifluoromethyl)nicotinonitrile], the concentration for half-maximal inhibition (IC50) at KRAS^G12C was 215 nM; in the assay with A549 cells it was > 5000 nM; with MIA PaCa-2 cells, 582 nM.

In the case of `C=CC(=O)N1CCN([C@@H]2CN(c3cc(N4CCC5(CC4)OC[C@H](COC)n4ncc(C)c45)nc(C(F)(F)F)n3)[C@@H]2C)CC1` [Compound 3-098], the results for the IC50 on KRAS^G12C, with A549 cells and in the assay with MIA PaCa-2 cells were 131 nM, > 5000 nM and 224 nM, respectively.

As for `C=CC(=O)N1CCN([C@@H]2CN(c3cc(N4CCC5(CC4)OCCc4nccc(C)c45)nc(C(F)(F)F)n3)[C@@H]2C)CC1` [Compound 3-094, 1-(4-((2R,3R)-2-methyl-1-(6-(4′-methyl-7′,8′-dihydro-1H-spiro[piperidine-4,5′-pyrano[4.3-b]pyridin]-1-yl)-2-(trifluoromethyl)-4-pyrimidinyl)-3-azetidinyl)-1-piperazinyl)-2-propen-1-one], the IC50 on KRAS^G12C is 52 nM; in the assay on A549 cells, > 5000 nM; in the assay with MIA PaCa-2 cells, 175 nM.

For the compound `C=CC(=O)N1CCN([C@@H]2CN(c3cc(N4CCC5(CC4)OC(C)(C)c4nccc(C)c45)nc(C(F)F)n3)[C@@H]2C)CC1` [Compound 3-096, 1-(4-((2R,3R)-1-(2-(difluoromethyl)-6-(4,7,7-trimethyl-1′H,7H-spiro[furo[3,4-b]pyridine-5,4′-piperidin]-1′-yl)-4-pyrimidinyl)-2-methyl-3-azetidinyl)-1-piperazinyl)-2-propen-1-one], the values for the IC50 at KRAS^G12C, in the assay on A549 cells and in the assay on MIA PaCa-2 cells were 69 nM, > 5000 nM and 267 nM, respectively.
